# Reference: patent US12221432B2, “Estrogen receptor antagonist” (CHIA TAI TIANQING PHARMACEUTICAL GROUP CO., LTD., priority 2018, dated 2025)
# Tested on: MCF-7 cells
# Experiment: MCF-7 cell proliferation inhibition
# Format: cell-based
# Conditions: 6 days incubation, CellTiter-Glo; read-out: IC50 for MCF-7 cell proliferation inhibition
# Procedure: EMEM medium was purchased from Wisent, and fetal bovine serum was purchased from Biosera. Promega CellTiter-Glo reagent. MCF-7 cells were purchased from the Cell Bank of Type Culture Collection Committee of the Chinese Academy of Sciences. Nivo5 multi-marker analyzer (PerkinElmer).
# MCF-7 cells were seeded in a white 384-well plate at 600 cells/[…] suspension/well. The plate was incubated in a CO2 incubator overnight.
# On the day of treatment, a day 0 plate coated under the same conditions the day before was taken, centrifuged to remove the medium, added with 25 microliters of Promega CellTiter-Glo reagent to each well, and incubated at room temperature for 10 minutes to stabilize the luminescence signal. Measures were read by PerkinElmer Nivo multi-marker analyzer as an initial value for 0% inhibition.
# The test compounds were serially 5-fold diluted to the 10th concentration with a multichannel pipette, i.e., from 2 millimoles to […], and the experiments were set up in duplicate. 47.5 microliters of medium was added to the intermediate plate, 2.5 microliters of serially diluted compounds were transferred to corresponding wells of the intermediate plate, and after mixing, 5 microliters of the mixture per well was transferred to the cell plate. The plate was incubated in a CO2 incubator for 6 days.
# After 6 days of co-incubation with the compounds, the plate was centrifuged to remove the medium, added with 25 microliters of Promega CellTiter-Glo reagent to each well, and incubated at room temperature for 10 minutes to stabilize the luminescence signal. Measures were read by PerkinElmer Nivo multi-marker analyzer.
# The original data was converted into inhibition rate by the formula: % inhibition=((RFUCmpd−AVER(RFUNeg.Ctrl))/((AVER(RFUDay0)−AVER(RFUNeg.Ctrl))×100%. Curve fitting was conducted and IC50 was calculated.
row,Structure (SMILES),IC50
1,CC/C(=C(/c1ccc(OCCN(C/C=C/C(=O)N(C)C)C(=O)OC(C)(C)C)nc1)c1[nH]c2ncccc2c1Cl)c1ccccc1 [Compound 5],4.74 nM
2,CN(C)C(=O)/C=C/CNCCOc1ccc(/C(=C(/CC(F)(F)F)c2c(F)cncc2F)c2[nH]c3ccccc3c2Cl)cn1 [Compound 8],2.72 nM

# Same assay, conditions: Homo sapiens, MCF7, 144 h, read-out: IC50 for MCF-7 cell proliferation inhibition
row,Structure (SMILES),IC50
1,CC/C(=C(/c1ccc(OCCNC/C=C/C(=O)N2CCC2)nc1)c1[nH]c2ccccc2c1Cl)c1ccccc1 [Compound 26],3.82 nM

# Same assay, conditions: Homo sapiens, MCF7, 144 h; 6 days incubation, CellTiter-Glo; read-out: IC50 for MCF-7 cell proliferation inhibition
row,Structure (SMILES),IC50
1,C=CC(=O)NCCOc1ccc(/C(=C(/CC)c2ccc(F)cc2Cl)c2[nH]c3ccccc3c2Cl)cn1 [Compound 7],4.25 nM
2,CN(C)C(=O)/C=C/CNCCOc1ccc(/C(=C(/CC(F)(F)F)c2ccc(F)cc2Cl)c2[nH]c3ccccc3c2Cl)cn1 [Compound 9],2.36 nM
3,CC/C(=C(/c1ccc(OCCNC/C=C/C(=O)N(C)C)nc1)c1cc2ccccc2[nH]1)c1ccc(F)cc1Cl [Compound 11],4.13 nM
4,CC/C(=C(/c1ccc(OCCNC/C=C/C(=O)N(C)C)nc1)c1[nH]c2ccccc2c1Cl)c1ccc(F)cc1F [Compound 17],2.67 nM
5,CC/C(=C(/c1ccc(OCCNC/C=C/C(=O)N(C)C)nc1)c1[nH]c2ccccc2c1Cl)c1cccc(C)c1 [Compound 18],2.35 nM
6,CC/C(=C(/c1ccc(OCCNC/C=C/C(=O)N(C)C)nc1F)c1[nH]c2ccccc2c1Cl)c1cccc(OC)c1 [Compound 19],2.75 nM

# Continued, values first:
row,IC50,Structure (SMILES)
1,2.21 nM,CC/C(=C(/c1ccc(OCCNC/C=C/C(=O)N(C)C)cc1)c1[nH]c2ccccc2c1Cl)c1cccc(OC)c1 [Compound 21]
2,2.11 nM,CN(C)C(=O)/C=C/CNCCOc1ccc(/C(=C(/CC(F)(F)F)c2ccccc2C#N)c2[nH]c3ccccc3c2Cl)cn1 [Compound 10]
3,1.6 nM,CC/C(=C(/c1ccc(OCCNC/C=C/C(=O)N(C)C)nc1)c1[nH]c2ccccc2c1Cl)c1ccc(Cl)cc1Cl [Compound 15]
4,1.46 nM,CC/C(=C(/c1ccc(OCCNC/C=C/C(=O)N(C)C)nc1)c1[nH]c2ccccc2c1C)c1cccc(OC)c1 [Compound 20]
5,1.11 nM,CC/C(=C(/c1ccc(OCCNC/C=C/C(=O)N(C)C)nc1)c1[nH]c2ccccc2c1Cl)c1csc(C)c1 [Compound 16]
6,1 nM,CC/C(=C(/c1ccc(OCCNC/C=C/C(=O)N(C)C)nc1)c1[nH]c2ccccc2c1Cl)c1ccccc1Cl [Compound 14]
7,0.87 nM,CC/C(=C(/c1ccc(OCCNC/C=C/C(=O)N(C)C)nc1)c1[nH]c2ccccc2c1Cl)c1ccccc1 [Compound 3]
8,0.64 nM,CC/C(=C(/c1ccc(OCCNC/C=C/C(=O)N(C)C)nc1)c1[nH]c2ccccc2c1Cl)c1ccccc1C#N [Compound 2]
9,0.61 nM,CC/C(=C(/c1ccc(OCCNC/C=C/C(=O)N(C)C)nc1)c1[nH]c2ccccc2c1Cl)c1cccc(OC)c1 [Compound 4]
10,0.49 nM,CC/C(=C(/c1ccc(OCCNC/C=C/C(=O)N2CC(CF)C2)nc1)c1[nH]c2ccccc2c1Cl)c1ccccc1 [Compound 27]
